In the supplement of paper PMC13380429:

Legend:
Details in all cases: 72 h
Caco-2 [1] = assay: drug sensitivity score (DSS) for viability; higher = more toxic; extreme values may be limits of the assay
Calu-3 [2] = assay: as above
Vero E6 [3] = assay: as above
HepG2 [4] = assay: as above
U2OS [5] = assay: as above
Caco-2 [6] = assay: cell viability relative to DMSO; higher = less toxic
Calu-3 [7] = assay: as above
Vero E6 [8] = assay: as above
HepG2 [9] = assay: as above
U2OS [10] = assay: as above
Caco-2 [11] = assay: relative viability EC50 (midpoint between 100% and the lowest measured viability); higher = less toxic
Calu-3 [12] = assay: as above
Vero E6 [13] = assay: as above
HepG2 [14] = assay: as above
U2OS [15] = assay: as above

SMILES	drug sensitivity score (Caco-2 [1])	drug sensitivity score (Calu-3 [2])	drug sensitivity score (Vero E6 [3])	drug sensitivity score (HepG2 [4])	drug sensitivity score (U2OS [5])	cell viability (Caco-2 [6]; 1 nM) [%]	cell viability (Caco-2 [6]; 10 nM) [%]	cell viability (Caco-2 [6]; 100 nM) [%]	cell viability (Caco-2 [6]; 1000 nM) [%]	cell viability (Caco-2 [6]; 10000 nM) [%]	cell viability (Calu-3 [7]; 1 nM) [%]	cell viability (Calu-3 [7]; 10 nM) [%]	cell viability (Calu-3 [7]; 100 nM) [%]	cell viability (Calu-3 [7]; 1000 nM) [%]	cell viability (Calu-3 [7]; 10000 nM) [%]	cell viability (Vero E6 [8]; 1 nM) [%]	cell viability (Vero E6 [8]; 10 nM) [%]	cell viability (Vero E6 [8]; 100 nM) [%]	cell viability (Vero E6 [8]; 1000 nM) [%]	cell viability (Vero E6 [8]; 10000 nM) [%]	cell viability (HepG2 [9]; 1 nM) [%]	cell viability (HepG2 [9]; 10 nM) [%]	cell viability (HepG2 [9]; 100 nM) [%]	cell viability (HepG2 [9]; 1000 nM) [%]	cell viability (HepG2 [9]; 10000 nM) [%]	cell viability (U2OS [10]; 1 nM) [%]	cell viability (U2OS [10]; 10 nM) [%]	cell viability (U2OS [10]; 100 nM) [%]	cell viability (U2OS [10]; 1000 nM) [%]	cell viability (U2OS [10]; 10000 nM) [%]	relative viability EC50 (Caco-2 [11]) [µM]	relative viability EC50 (Calu-3 [12]) [µM]	relative viability EC50 (Vero E6 [13]) [µM]	relative viability EC50 (HepG2 [14]) [µM]	relative viability EC50 (U2OS [15]) [µM]
CCc1nc(C)ccc1O [emoxipin]	0	0	0	0	0	95.1	99.6	98.1	98.6	90.9	105	111	104	96.8	105	98.1	102	97.3	92.7	93.2	110	108	97.4	99.6	108	102	101	106	97	103	> 10	> 10	> 10	> 10	> 10
Cc1ncc([N+](=O)[O-])n1CCO [metronidazole]	0	0	0	0	0	100	94.4	101	94.9	98.4	97.3	95.9	109	97	102	96.8	99.7	96.2	93.5	100	97.7	102	111	99.8	105	104	97.6	98.9	96.9	98	> 10	> 10	> 10	> 10	> 10
COC(=O)C1=CO[C@@H](O)[C@@H]2C(CO)=CC[C@H]12 [genipin]	0.1	2.4	0	0	0	91.6	96.1	102	96.8	88.5	88	92.8	83.6	85.1	87	90.1	101	95.7	99.5	106	87.6	105	103	106	113	93.8	94.3	99.7	92.8	100	> 10	> 10	> 10	> 10	> 10
CC1(C)CCC(C)(C)c2cc(C3(c4ccc5cc(C(=O)O)ccc5c4)SCCS3)ccc21	0	0	0	0	0	106	104	93.9	94.7	94.6	104	106	89.4	113	98.8	95.8	98.7	96.6	98	100	101	85.2	96.3	106	102	97.9	104	94.4	93.5	98.6	> 10	> 10	> 10	> 10	> 10
NS(=O)(=O)NCCNc1nonc1/C(=N/O)Nc1ccc(F)c(Br)c1	0	0	0	0	0	89.9	100	98	102	96.4	100	96.2	93.7	95	95.4	100	98.9	98.2	94.5	107	100	96	103	94.8	102	93.6	102	96.2	102	95	> 10	> 10	> 10	> 10	> 10
CC[C@H](C)[C@H](N)C1=N[C@H](C(=O)N[C@@H](CC(C)C)C(=O)N[C@H](CCC(=O)O)C(=O)N[C@H](C(=O)N[C@H]2CCCCNC(=O)[C@H](CC(N)=O)NC(=O)[C@@H](CC(=O)O)NC(=O)[C@H](Cc3cnc[nH]3)NC(=O)[C@@H](Cc3ccccc3)NC(=O)[C@H]([C@@H](C)CC)NC(=O)[C@@H](CCCN)NC2=O)[C@@H](C)CC)CS1 [bacitracin]	0	0	0	0	0	104	104	90.4	106	119	103	96.4	97.7	99.5	97.8	102	96.2	103	114	110	100	99	99.4	103	104	95.8	96.3	98.9	98.9	102	> 10	> 10	> 10	> 10	> 10
CCC(=O)NC[C@H](Cc1ccc(OCCc2nc(-c3ccccc3)oc2C)cc1)N/C(C)=C\C(=O)c1ccc(C(F)(F)F)cc1 [GW-6471]	0	0	0	0	0	94.5	102	106	97.8	93.6	101	94.7	103	97.4	102	98.6	97.6	96.1	89.3	94.8	97.3	99.5	93.8	101	109	96.6	104	101	100	95.4	> 10	> 10	> 10	> 10	> 10
Cc1cnc(-c2ccccc2C(C)C)nc1NCc1ccc(-n2ccnn2)cc1 [ML323]	0.5	0	0	0.8	0	90.2	101	92.2	95.8	81	91.6	108	105	97.3	110	89.6	90	87.6	89.7	99.4	99.1	94.2	112	96.5	82.2	94.9	103	95.8	102	97.9	> 10	> 10	> 10	> 10	> 10
O=C([O-])CN1CCN(CC(=O)[O-])CCN([C@H](CO)[C@H](O)CO)CCN(CC(=O)[O-])CC1.[Gd+3] (racemic) [gadobutrol]	0	0	0	0	0	107	96.2	95.5	98.8	104	96.2	104	109	109	98.4	100	105	96.8	99.4	107	97	99.2	101	91.8	100	99.6	113	100	104	106	> 10	> 10	> 10	> 10	> 10
Cc1ccc(-c2ncc(Cl)cc2-c2ccc(S(C)(=O)=O)cc2)cn1 [etoricoxib]	0	0	0	0	0	95.3	108	92.5	99.9	104	94.7	99	90	104	101	96.4	101	96.5	99.2	94	101	90.5	99.5	104	98.6	98.1	103	97.2	98.5	94.2	> 10	> 10	> 10	> 10	> 10
CCCN1CCC[C@@H]2Cc3n[nH]cc3C[C@H]21 [quinpirol-(-)]	0	0	0	0	0	102	93.7	99.8	99.1	106	98.2	95.9	98.5	93.1	95.9	96.8	93.1	97.6	93.6	107	93.6	102	103	99.3	97.2	92.5	98.7	94.9	101	102	> 10	> 10	> 10	> 10	> 10
CC1(C)O[C@@H]2C[C@H]3[C@@H]4CCC5=CC(=O)C=C[C@]5(C)[C@H]4[C@@H](O)C[C@]3(C)[C@]2(C(=O)CO)O1 [desonide]	0	0	0	0	0	103	106	95	112	120	124	92.5	95	101	96.9	102	102	101	108	99.5	102	101	93.9	94.6	94.6	99.5	94.9	101	93.6	97.9	> 10	> 10	> 10	> 10	> 10
CCCCc1nc(Cl)c(CO)n1Cc1ccc(-c2ccccc2-c2nnn[nH]2)cc1 [losartan]	0	0	0	0	0	94.1	102	93.2	94.7	95.5	103	84.4	96.2	97.5	94.6	103	102	102	98.1	101	110	116	104	96.7	96.7	99.1	104	96.4	105	96.5	> 10	> 10	> 10	> 10	> 10
CCC(c1ccccc1)c1c(O)c2ccccc2oc1=O (stereo not given) [phenprocoumon]	0	0	0	0	0	91.4	97.6	104	92.2	104	102	100	102	93.6	94.8	100	108	97.3	102	102	90.2	107	87.5	99.7	108	96.8	92.5	101	99.8	104	> 10	> 10	> 10	> 10	> 10
